Read-outs that look alike come from different tables or passages of the source.
System: ZR75 cells
Experiment: 3H-thymidine incorporation (DNA synthesis) / proliferation of ZR75 cells, estrogen-like activity
Format: cell-based, human
Settings: for activity at 0.001 µM / activity at 0.01 µM / activity at 0.1 µM / activity at 1 µM: Homo sapiens, control water; for activity at 0.001 µM: 1 nM; for activity at 0.01 µM: 10 nM; for activity at 0.1 µM: 100 nM; for activity at 1 µM: 1000 nM, read-out: DNA synthesis (% of Control)
From the text: The following test was employed to determine whether resveratrol has an estrogen-like activity:
The ZR75 cell line is a ductal breast carcinoma cell line, originally isolated from malignant mammary epithelium of a person (Engel et al., Human breast carcinoma cells in continuous culture: A review., Cancer Res., 38: 4327-4339, 1978). This cell line contains receptors for estrogen, progesterone and other steroid hormones, but responds through an increase in proliferation only to estrogen. The cell line contains high affinity estrogen-specific receptors. Therefore, this cell line is used for testing estrogen-like activity (Markiewicz et al., In vitro bioassays of non-steroidal phytoestrogens, J. Steroid Biochem. Molec. Biol., 45: 399-405, 1993)
Methodology Used for Determining the Rate of DNA Synthesis in Cells
The incorporation of ^3 H-thymidine by cultured cells was used as an assay of cell proliferation (both for ZR75 cells and for keratinocytes). Thymidine is one of four deoxynucleosides which are the monomeric units of DNA. Prior to cell division of a somatic cell, the complete genome of the cell undergoing cell division is replicated. This involves large scale DNA synthesis by the cell and enables both daughter cells to receive identical copies of the genetic material. When ^3 H-thymidine is included in the culture media of cells which are synthesizing DNA in preparation for cell division then the labeled thymidine is incorporated into the newly synthesized DNA. The extent of incorporation of ^3 H-thymidine into a population of cells is proportional to the rate of DNA synthesis by this population of cells and therefore an indication of their cellular proliferation.
ZR75 cells (from American Type Culture Collection, Rockville, Md.) were grown in RPMI1640 media (from Gibco Life Technologies) with 10% fetal bovine serum (FBS) , 100 units penicillin per ml and 100 units of streptomycin per ml. All incubations were performed at 37° C. in 5% CO2. […] The cells were seeded at a density of one million per 75 cm2 flask. For the experiment, the cells were seeded in 24 well plates at 100,000 cells per ml per well.
After growing for 24 hours, the media was removed, the cells were washed with PBS (phosphate buffered saline, 0.01 M sodium phosphate, 0.138 M sodium chloride, 0.0027 M potassium chloride, pH 7.4) and 1 ml of RPMI 1640 without serum (but with streptomycin and penicillin) was added. Stock solutions of resveratrol in dimethyl sulfoxide (DMSO) and estradiol in water were prepared. […] After another 24 hours, one μCi of [methyl-3H] thymidine was added to each well. The media was removed after 24 hours. The cells were washed once in PBS, the PBS was removed completely and the cells were left on ice to incubate with 1 ml per well of 10% TCA (trichloroacetic acid) for 30 minutes. The plates were washed 3 times with 5% TCA to remove all traces of thymidine which wasn't incorporated into the cells. 500 μl of 0.1M sodium hydroxide was added to each well and the plates were incubated at room temperature for at least 30 minutes. 250 μl of each sample was transferred to scintillation vials and after adding 5 mL of counting fluid, the vials were counted for 5 minutes each on a setting for tritium. […] Values were expressed as mean of quadruplicate wells +/- standard deviation.

Which activity at 0.001 µM (ZR75, EXPT 1) does the source give for C[C@]12CC[C@@H]3c4ccc(O)cc4CC[C@H]3[C@@H]1CC[C@@H]2O [Estradiol, estradiol, reference compound] here?
Its activity at 0.001 µM is 220 ± 11%.

What about the activity at 0.01 µM (ZR75, EXPT 1) of the same molecule?
Its activity at 0.01 µM is 210 ± 9.7%.

What about the activity at 0.1 µM (ZR75, EXPT 1) of the same molecule?
The activity at 0.1 µM was 205 ± 15.6%.

What about the activity at 1 µM (ZR75, EXPT 1) of the same molecule?
The activity at 1 µM was 190 ± 24.5%.

And the activity at 0.001 µM (ZR75, EXPT 2)?
The activity at 0.001 µM was 133 ± 29%.

What about the activity at 0.01 µM (ZR75, EXPT 2) of the same molecule?
The activity at 0.01 µM was 152 ± 17.7%.

What about the activity at 0.1 µM (ZR75, EXPT 2) of the same molecule?
The activity at 0.1 µM was 156 ± 11.7%.

And the activity at 1 µM (ZR75, EXPT 2)?
Its activity at 1 µM is 142 ± 18.3%.

What about the “proliferation of ZR 75 cells” value (Table 1 summary) of the same molecule?
Its value is “stimulated proliferation of ZR 75 cells”.
